This is an account of results in paper PMC3517606 (2012).

For experiment [1], the system named is F21T (DNA, G4) GGGTTAGGGTTAGGGTTAGGG
The experiment in a line: FRET melting. As to conditions: 60 mM KCl; 10 mM Tris-HCl, pH 7.4; 1 µM DNA, [Ru]:[DNA] = 2:1.

Experiment [2] deals with HTG21 (DNA, G4) GGGTTAGGGTTAGGGTTAGGG
Nature of the experiment: luminescence titration, Scatchard. The note with it: 100 mM KCl; 10 mM Tris-HCl, pH 7.4, 20 °C; 4 µM Ru; DNA concentration in base pairs.

In experiment [3] the test system is ds26 (DNA, duplex) CAATCGGATCGAATTCGATCCGATTG
The experiment in a line: emission spectroscopy. The note with it: 100 mM KCl; 10 mM Tris-HCl, pH 7.4; 4 µM Ru, 8 µM DNA.

The test system of experiment [4] is HTG21 (DNA, G4) GGGTTAGGGTTAGGGTTAGGG
Nature of the experiment: absorption titration. The note with it: 100 mM NaCl; 10 mM Tris-HCl, 25 °C.

By ΔTm is commonly meant the shift of the melting midpoint relative to a reference. On to `Oc1ccc(-c2nc3c4cccnc4c4ncccc4c3[nH]2)cc1.[Ru+2].c1cnc2c(c1)ccc1cccnc12.c1cnc2c(c1)ccc1cccnc12` [Δ-Ru], for which the shift in melting temperature (ΔTm) in experiment [1] is 15.0 °C. Moreover, the Kb in experiment [2] came to 720000 M⁻¹; in experiment [4], 8.3e+06 M⁻¹. The binding entry in experiment [3] is reported as “weak”.
As for `Oc1ccc(-c2nc3c4cccnc4c4ncccc4c3[nH]2)cc1.[Ru+2].c1cnc2c(c1)ccc1cccnc12.c1cnc2c(c1)ccc1cccnc12` [Λ-Ru], the thermal shift (ΔTm) in experiment [1] worked out at 22.7 °C. Moreover, the Kb in experiment [2] came to 930000 M⁻¹; in experiment [4], 8.9e+06 M⁻¹. In experiment [3], the binding result is “weak”.
In the case of `Oc1ccc(-c2nc3c4cccnc4c4ncccc4c3[nH]2)cc1.[Ru+2].c1cnc2c(c1)ccc1cccnc12.c1cnc2c(c1)ccc1cccnc12` [Λ/Δ-Ru], the ΔTm in experiment [1] came to 18.4 °C. The molecule also yielded a Kb in experiment [2] of 910000 M⁻¹. Besides, the binding entry in experiment [3] was “weak”.
